How the values were obtained:
[1] = test system: Granta-519; test: Cytotoxicity against human Granta-519 cells assessed as reduction in cell viability incubated for 72 hrs by MTS assay; type: functional, cell-based; settings: Granta-519, 72 h
[2] = target: T1, Protein cereblon/F-box-like/WD repeat-containing protein TBL1X (Homo sapiens) (UniProt Q96SW2+O60907); test: PROTAC activity at CRBN/TBL1X in human Ri-1 cells assessed as […] TBL1X level at 1 uM incubated for 6 hrs by Western blotting analysis (reference value: 1); type: cell-based
[3] = target: T1, Protein cereblon/F-box-like/WD repeat-containing protein TBL1X (Homo sapiens); test: PROTAC activity at CRBN/TBL1X in human Ri-1 cells assessed as […] TBL1X level at 0.2 uM incubated for 6 hrs by Western blotting analysis (reference value: 1); type: cell-based
[4] = target: T1, Protein cereblon/F-box-like/WD repeat-containing protein TBL1X (Homo sapiens); test: PROTAC activity at CRBN/TBL1X in human Ri-1 cells assessed as TBL1X level relative to control at 0.008 uM incubated for 6 hrs by Western blotting analysis (reference value: 1); type: cell-based
[5] = Cytotoxicity against human Ri-1 cells assessed as reduction in cell viability incubated for 72 hrs by MTS assay; type: functional, cell-based; settings: Ri-1, 72 h
[6] = target: T1, Protein cereblon/F-box-like/WD repeat-containing protein TBL1X (Homo sapiens); test: PROTAC activity at CRBN/TBL1X in human Ri-1 cells assessed as […] TBL1X level at 5 uM incubated for 6 hrs by Western blotting analysis (reference value: 1); type: cell-based
[7] = target: T1, Protein cereblon/F-box-like/WD repeat-containing protein TBL1X (Homo sapiens); test: PROTAC activity at CRBN/TBL1X in human Ri-1 cells assessed as […] TBL1X level at 0.04 uM incubated for 6 hrs by Western blotting analysis (reference value: 1); type: cell-based
[8] = test system: Pfeiffer; test: Cytotoxicity against human Pfeiffer cells assessed as reduction in cell viability incubated for 72 hrs by MTS assay; type: functional, cell-based
[9] = target: T1, Protein cereblon/F-box-like/WD repeat-containing protein TBL1X (Homo sapiens); test: PROTAC activity at CRBN/TBL1X in human Ri-1 cells assessed as decrease in TBL1X level incubated for 6 hrs by Western blotting analysis; type: cell-based; settings: dose 0.008-5 µM
[10] = target: T1, Protein cereblon/F-box-like/WD repeat-containing protein TBL1X (Homo sapiens); test: PROTAC activity at CRBN/TBL1X in human Ri-1 cells assessed as […] TBL1X level at 0.2 uM incubated for 6 hrs in presence of MG-132 by Western blotting analysis (reference value: 1); type: cell-based
[11] = target: T1, Protein cereblon/F-box-like/WD repeat-containing protein TBL1X (Homo sapiens); test: PROTAC activity at CRBN/TBL1X in human Ri-1 cells assessed as […] TBL1X level at 0.2 uM incubated for 6 hrs in presence of pomalidomide by Western blotting analysis (reference value: 1); type: cell-based
[12] = target: T1, Protein cereblon/F-box-like/WD repeat-containing protein TBL1X (Homo sapiens); test: PROTAC activity at CRBN/TBL1X in human Ri-1 cells assessed as […] TBL1X level at 0.2 uM incubated for 6 hrs in presence of tega-vivint by Western blotting analysis (reference value: 1); type: cell-based

T1 sequence (O60907 whole entry, looked up): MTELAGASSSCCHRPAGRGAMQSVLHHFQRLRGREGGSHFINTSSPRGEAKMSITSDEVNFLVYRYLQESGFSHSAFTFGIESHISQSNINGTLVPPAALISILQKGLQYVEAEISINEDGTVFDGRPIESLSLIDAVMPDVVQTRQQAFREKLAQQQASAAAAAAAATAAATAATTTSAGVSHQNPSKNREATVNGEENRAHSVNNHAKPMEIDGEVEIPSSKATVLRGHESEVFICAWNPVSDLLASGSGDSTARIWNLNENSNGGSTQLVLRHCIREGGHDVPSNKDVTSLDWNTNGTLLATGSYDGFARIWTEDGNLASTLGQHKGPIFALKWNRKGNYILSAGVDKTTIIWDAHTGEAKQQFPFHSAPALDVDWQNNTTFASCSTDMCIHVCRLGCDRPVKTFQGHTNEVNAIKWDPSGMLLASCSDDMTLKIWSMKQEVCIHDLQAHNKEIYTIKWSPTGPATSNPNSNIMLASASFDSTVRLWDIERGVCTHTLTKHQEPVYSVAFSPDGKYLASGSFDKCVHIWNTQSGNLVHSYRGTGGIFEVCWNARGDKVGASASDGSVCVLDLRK
T1 sequence (Q96SW2 whole entry, looked up): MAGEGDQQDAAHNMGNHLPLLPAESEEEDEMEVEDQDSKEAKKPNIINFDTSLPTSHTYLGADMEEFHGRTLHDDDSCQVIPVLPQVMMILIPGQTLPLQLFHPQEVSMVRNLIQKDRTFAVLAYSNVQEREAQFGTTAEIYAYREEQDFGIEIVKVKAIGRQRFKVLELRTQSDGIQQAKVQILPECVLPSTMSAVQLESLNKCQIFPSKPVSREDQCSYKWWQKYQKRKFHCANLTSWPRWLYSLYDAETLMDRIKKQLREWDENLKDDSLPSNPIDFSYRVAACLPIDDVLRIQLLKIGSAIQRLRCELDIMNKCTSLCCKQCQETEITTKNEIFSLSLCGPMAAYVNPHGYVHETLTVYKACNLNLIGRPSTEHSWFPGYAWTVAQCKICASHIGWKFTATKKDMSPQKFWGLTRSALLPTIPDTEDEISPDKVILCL

Structure (SMILES) | IC50 [1] [nM] | fold change (FC) [2] | fold change (FC) [3] | fold change (FC) [4] | IC50 [5] [nM] | fold change (FC) [6] | fold change (FC) [7] | IC50 [8] [nM] | Activity [9] | fold change (FC) [10] | fold change (FC) [11] | fold change (FC) [12]
CC1CC(C)CN(S(=O)(=O)c2ccc3c(c2)/C(=N/O)c2cc(S(=O)(=O)N4CCN(C(=O)CCNc5cccc6c5C(=O)N(C5CCC(=O)NC5=O)C6=O)CC4)ccc2/C3=N\O)C1 (configuration not stated) | 399 | 1.23 | 1.28 | 1 | 797 | 1.34 | 1.3 | 564 |  |  |  | 
CC1CC(C)CN(S(=O)(=O)c2ccc3c(c2)/C(=N/O)c2cc(S(=O)(=O)N4CCN(C(=O)CCCCCCCCCCNc5cccc6c5C(=O)N(C5CCC(=O)NC5=O)C6=O)CC4)ccc2/C3=N\O)C1 (configuration not stated) | 1160 | 0.92 | 0.99 | 0.98 | 1160 | 1.08 | 1.04 | 2500 |  |  |  | 
CC1CC(C)CN(S(=O)(=O)c2ccc3c(c2)C(=NO)c2cc(S(=O)(=O)N4CC(C)CC(C)C4)ccc2C3=NOCCCNC(=O)CCOCCOCCNc2cccc3c2C(=O)N(C2CCC(=O)NC2=O)C3=O)C1 (configuration not stated) | > 20000 | 0.64 | 0.63 | 0.37 | > 20000 | 1.03 | 0.35 | 1880 |  |  |  | 
CC1CC(C)CN(S(=O)(=O)c2ccc3c(c2)C(=NO)c2cc(S(=O)(=O)N4CC(C)CC(C)C4)ccc2C3=NOCCCNC(=O)CCOCCOCCOCCNc2cccc3c2C(=O)N(C2CCC(=O)NC2=O)C3=O)C1 (configuration not stated) | > 20000 | 0.59 | 0.46 | 0.6 | > 20000 | 0.58 | 0.49 | > 20000 |  |  |  | 
CC1CC(C)CN(S(=O)(=O)c2ccc3c(c2)C(=NO)c2cc(S(=O)(=O)N4CC(C)CC(C)C4)ccc2C3=NOCCCNC(=O)CCCCCCNc2cccc3c2C(=O)N(C2CCC(=O)NC2=O)C3=O)C1 (configuration not stated) | 530 | 0.74 | 0.61 | 0.8 | 929 | 0.44 | 0.74 | 355 | Dose-Dependent Effect |  |  | 
CC1CC(C)CN(S(=O)(=O)c2ccc3c(c2)C(=NO)c2cc(S(=O)(=O)N4CC(C)CC(C)C4)ccc2C3=NOCCCNC(=O)CCCCNc2cccc3c2C(=O)N(C2CCC(=O)NC2=O)C3=O)C1 (configuration not stated) | 523 | 0.61 | 0.53 | 0.4 | 795 | 1.46 | 0.27 | 398 | Dose-Dependent Effect | 0.92 | 0.82 | 0.87
CC1CC(C)CN(S(=O)(=O)c2ccc3c(c2)/C(=N\O)c2cc(S(=O)(=O)N4CCN(C(=O)CCOCCOCCNc5cccc6c5C(=O)N(C5CCC(=O)NC5=O)C6=O)CC4)ccc2/C3=N\O)C1 (configuration not stated) | > 20000 | 1.06 | 0.94 | 1.07 | > 20000 | 0.97 | 0.99 | > 20000 |  |  |  | 
CC1CC(C)CN(S(=O)(=O)c2ccc3c(c2)C(=NO)c2cc(S(=O)(=O)N4CC(C)CC(C)C4)ccc2C3=NOCCCNC(=O)CCCCCCCCCCNc2cccc3c2C(=O)N(C2CCC(=O)NC2=O)C3=O)C1 (configuration not stated) | > 20000 | 0.18 | 0.44 | 0.64 | > 20000 | 0.43 | 0.43 | > 20000 | Dose-Dependent Effect |  |  | 
CC1CC(C)CN(S(=O)(=O)c2ccc3c(c2)/C(=N\O)c2cc(S(=O)(=O)N4CCN(C(=O)CCOCCOCCOCCNc5cccc6c5C(=O)N(C5CCC(=O)NC5=O)C6=O)CC4)ccc2/C3=N\O)C1 (configuration not stated) | > 20000 | 0.79 | 0.92 | 0.9 | > 20000 | 0.97 | 1.02 | > 20000 |  |  |  | 
CC1CC(C)CN(S(=O)(=O)c2ccc3c(c2)/C(=N/O)c2cc(S(=O)(=O)N4CCN(C(=O)CCCCNc5cccc6c5C(=O)N(C5CCC(=O)NC5=O)C6=O)CC4)ccc2/C3=N\O)C1 (configuration not stated) | 496 | 0.91 | 1.02 | 0.9 | 560 | 0.6 | 0.94 | 647 |  |  |  | 
C[C@@H]1C[C@H](C)CN(S(=O)(=O)c2ccc3c(c2)C(=NO)c2cc(S(=O)(=O)N4C[C@H](C)C[C@H](C)C4)ccc2C3=NO)C1 | 94.1 |  |  |  | 86 |  |  | 175 |  |  |  | 
CC1CC(C)CN(S(=O)(=O)c2ccc3c(c2)/C(=N/O)c2cc(S(=O)(=O)N4CCN(C(=O)CCCCCCNc5cccc6c5C(=O)N(C5CCC(=O)NC5=O)C6=O)CC4)ccc2/C3=N\O)C1 (configuration not stated) | 439 | 1.36 | 1.16 | 0.91 | 605 | 1.51 | 1.03 | 343 |  |  |  | 
CC1CC(C)CN(S(=O)(=O)c2ccc3c(c2)C(=NO)c2cc(S(=O)(=O)N4CC(C)CC(C)C4)ccc2C3=NOCCCNC(=O)CCNc2cccc3c2C(=O)N(C2CCC(=O)NC2=O)C3=O)C1 (configuration not stated) | 323 | 0.5 | 0.41 | 0.97 | 651 | 0.54 | 0.56 | 189 | Dose-Dependent Effect |  |  | 
CC1CC(C)CN(S(=O)(=O)c2ccc3c(c2)/C(=N/O)c2cc(S(=O)(=O)N4CCN(C(=O)CCOCCNc5cccc6c5C(=O)N(C5CCC(=O)NC5=O)C6=O)CC4)ccc2/C3=N\O)C1 (configuration not stated) | > 20000 | 1.15 | 1.59 | 0.91 | > 20000 | 0.79 | 1.11 | > 20000 |  |  |  | 
CC1CC(C)CN(S(=O)(=O)c2ccc3c(c2)C(=NO)c2cc(S(=O)(=O)N4CC(C)CC(C)C4)ccc2C3=NOCCCNC(=O)CCOCCNc2cccc3c2C(=O)N(C2CCC(=O)NC2=O)C3=O)C1 (configuration not stated) | 1040 | 0.43 | 0.51 | 0.4 | 1350 | 0.48 | 0.47 | 554 |  |  |  | 

From ChEMBL document CHEMBL6071187, “Design, Synthesis, and Biological Evaluation of Selective TBL1X Degraders” (ACS Med Chem Lett, 2024)
